From ChEMBL document CHEMBL5584348, “Exploring Degradation of Intrinsically Disordered Protein Yes-Associated Protein Induced by Proteolysis TArgeting Chimeras” (J Med Chem, 2024)
Activity calls are given as the source filed them. The rule behind the calls is not given here.

Legend:
[1] = molecular target: Transcriptional coactivator YAP1 (Homo sapiens) (UniProt P46937); assay: Inhibition of YAP nuclear localization in human Huh-7 cells assessed as decrease in integrated YAP intensity incubated for 12 hrs by immunofluorescence based microscopic analysis; assay type: cell-based; settings: dose <= 20.0 µM
[2] = molecular target: T1, von Hippel-Lindau disease tumor suppressor/Transcriptional coactivator YAP1 (Homo sapiens, UniProt P40337+P46937); assay: PROTAC activity at YAP/VHL in human Huh-7 cells assessed as induction of YAP degradation at 20 uM measured for 24 hrs in presence of 4-(3,4-dimethoxyphenyl)-2-phenyl-5,7-dihydro-6H-benzo[b]pyrido[2,3-d]azepin-6-one by Western blot analysis; assay type: cell-based
Target sequence in this assay (P40337 whole entry, looked up): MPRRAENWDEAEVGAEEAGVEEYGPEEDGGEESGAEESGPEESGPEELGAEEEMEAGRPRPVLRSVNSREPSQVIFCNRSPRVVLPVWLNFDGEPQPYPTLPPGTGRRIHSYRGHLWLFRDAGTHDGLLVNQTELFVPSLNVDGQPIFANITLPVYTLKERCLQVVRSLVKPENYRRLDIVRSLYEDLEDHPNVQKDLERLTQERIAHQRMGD
Target sequence in this assay (P46937 whole entry, looked up): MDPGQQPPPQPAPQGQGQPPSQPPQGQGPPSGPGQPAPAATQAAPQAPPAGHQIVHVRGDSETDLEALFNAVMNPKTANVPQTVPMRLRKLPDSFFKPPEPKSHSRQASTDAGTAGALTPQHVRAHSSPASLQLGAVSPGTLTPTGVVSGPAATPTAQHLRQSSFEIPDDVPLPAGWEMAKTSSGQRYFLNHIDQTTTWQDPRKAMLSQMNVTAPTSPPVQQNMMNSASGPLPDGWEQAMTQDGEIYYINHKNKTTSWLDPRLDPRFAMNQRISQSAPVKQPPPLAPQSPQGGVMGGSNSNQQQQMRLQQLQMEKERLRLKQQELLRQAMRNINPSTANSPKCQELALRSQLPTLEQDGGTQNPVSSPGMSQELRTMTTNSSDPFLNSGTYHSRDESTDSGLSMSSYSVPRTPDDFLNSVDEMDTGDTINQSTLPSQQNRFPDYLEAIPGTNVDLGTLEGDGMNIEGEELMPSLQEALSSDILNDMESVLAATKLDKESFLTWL

[3] = molecular target: T1, von Hippel-Lindau disease tumor suppressor/Transcriptional coactivator YAP1; assay: PROTAC activity at YAP/VHL in human Huh-7 cells assessed as induction of YAP degradation at 20 uM incubated at 12 hrs by Western blot analysis; assay type: cell-based
Target sequence in this assay (P40337 whole entry, looked up): as the sequence (P40337 whole entry, looked up) above
Target sequence in this assay (P46937 whole entry, looked up): as the sequence (P46937 whole entry, looked up) above

[4] = molecular target: T1, von Hippel-Lindau disease tumor suppressor/Transcriptional coactivator YAP1; assay: PROTAC activity at YAP/VHL in human Huh-7 cells assessed as induction of YAP degradation incubated for 48 hrs by Western blot analysis; assay type: cell-based
Target sequence in this assay (P40337 whole entry): as the sequence (P40337 whole entry, looked up) above
Target sequence in this assay (P46937 whole entry): as the sequence (P46937 whole entry, looked up) above

[5] = molecular target: T1, von Hippel-Lindau disease tumor suppressor/Transcriptional coactivator YAP1; assay: PROTAC activity at YAP/VHL in human Huh-7 cells assessed as suppression of CTGF expression at 10 to 20 uM measured for 24 hrs by Western blot analysis relative to control; assay type: cell-based; settings: dose 10-20 µM
Target sequence in this assay (P40337 whole entry, looked up): as the sequence (P40337 whole entry, looked up) above
Target sequence in this assay (P46937 whole entry, looked up): as the sequence (P46937 whole entry, looked up) above

[6] = molecular target: T1, von Hippel-Lindau disease tumor suppressor/Transcriptional coactivator YAP1; assay: PROTAC activity at YAP/VHL in human Huh-7 cells assessed as induction of YAP degradation by measuring half life at 20 uM incubated at 48 hrs by Western blot analysis; assay type: cell-based
Target sequence in this assay (P40337 whole entry, looked up): as the sequence (P40337 whole entry, looked up) above
Target sequence in this assay (P46937 whole entry, looked up): as the sequence (P46937 whole entry, looked up) above

[7] = molecular target: T1, von Hippel-Lindau disease tumor suppressor/Transcriptional coactivator YAP1; assay: PROTAC activity at YAP/VHL in human NCI-H226 cells assessed as reduction in CTGF expression incubated for 48 hrs by Western blot analysis; assay type: cell-based; settings: dose 2.5-20 µM
Target sequence in this assay (P40337 whole entry, looked up): as the sequence (P40337 whole entry, looked up) above
Target sequence in this assay (P46937 whole entry, looked up): as the sequence (P46937 whole entry, looked up) above

[8] = Half life in Sprague-Dawley rat at 35 mg/kg, ip measured upto 24 hrs by LC-MS/MS analysis; assay type: ADME, organism-based; settings: in vivo
[9] = molecular target: T1, von Hippel-Lindau disease tumor suppressor/Transcriptional coactivator YAP1; assay: PROTAC activity at YAP/VHL in human NCI-H226 cells assessed as reduction in YAP level at 10 uM incubated for 48 hrs by Western blot analysis relative to control; assay type: cell-based; parameters: scale not given: the % may be the effect or the level left
Target sequence in this assay (P40337 whole entry, looked up): as the sequence (P40337 whole entry, looked up) above
Target sequence in this assay (P46937 whole entry, looked up): as the sequence (P46937 whole entry, looked up) above

Huh-7 [10] = assay: Antitumor activity against human Huh-7 cells xenografted in immunodeficient male NSG mouse assessed as reduction in CTGF level at 35 mg/kg, ip administered every 3 days for 24 days by Western blot analysis; assay type: functional, organism-based; settings: time 24.0 day
[11] = molecular target: T1, von Hippel-Lindau disease tumor suppressor/Transcriptional coactivator YAP1; assay: PROTAC activity at YAP/VHL in human Huh-7 cells assessed as induction of YAP degradation at 20 uM incubated at 24 hrs by Western blot analysis; assay type: cell-based
[12] = molecular target: T1, von Hippel-Lindau disease tumor suppressor/Transcriptional coactivator YAP1; assay: PROTAC activity at YAP/VHL in human NCI-H226 cells assessed as reduction in CTGF expression at 5 uM incubated for 48 hrs by Western blot analysis; assay type: cell-based
[13] = molecular target: T1, von Hippel-Lindau disease tumor suppressor/Transcriptional coactivator YAP1; assay: PROTAC activity at YAP/VHL in human Huh-7 cells assessed as induction of YAP degradation at 20 uM measured for 24 hrs in presence of MG-132 by Western blot analysis; assay type: cell-based
[14] = molecular target: T1, von Hippel-Lindau disease tumor suppressor/Transcriptional coactivator YAP1; assay: PROTAC activity at YAP/VHL in human NCI-H226 cells assessed as downregulation of YAP level at 20 uM incubated at 24 hrs by Western blot analysis; assay type: cell-based
Huh-7 [15] = assay: Antiproliferative activity against human Huh-7 cells overexpressing YAP assessed as cell growth inhibition incubated for 4 days by CCK-8 assay; assay type: functional, cell-based; settings: Huh-7, 96 h
[16] = molecular target: T1, von Hippel-Lindau disease tumor suppressor/Transcriptional coactivator YAP1; assay: PROTAC activity at YAP/VHL in human Huh-7 cells assessed as downregulation of YAP level at 20 uM incubated at 24 hrs by Western blot analysis; assay type: cell-based

Transcriptional coactivator YAP1 (Homo sapiens), sequence (P46937 whole entry): as the sequence (P46937 whole entry, looked up) above

inhibition [1]: Dose-Dependent Effect | Activity [2]: Active | Activity [3]: 10% | DC50 [4]: 4.3 µM | Activity [5]: Active | T1/2 [6]: 16.5 h | Activity [7]: Dose-Dependent Effect | half-life [8]: 13.3 h | Activity [9]: 80% | Activity [11]: 65% | Activity [12]: Active | Activity [13]: Active | Activity [14]: Active | IC50 (Huh-7 [15]): 2.9 µM | Activity [16]: Active
Structure (SMILES): COc1cc(-c2cc(-c3ccccc3)nc3c2CC(=O)Nc2ccccc2-3)ccc1OCCOCCOCCC(=O)N[C@H](C(=O)N1C[C@H](O)C[C@H]1C(=O)N[C@@H](C)c1ccc(-c2scnc2C)cc1)C(C)(C)C
Activity (Huh-7 [10]): Active
